Holding throughout (type): cell-based
In assay [1] the test system is Arthroderma vanbreuseghemii (TIMM2789). In words: Antifungal activity test, minimum inhibitory concentration (Test Example 9). The following applies: Trichophyton mentagrophytes, Sabouraud media, 28° C. for 72 hours, read-out: Minimum inhibitory concentration (MIC100). On the procedure:
(§1) Test Example 9: Antifungal Activity Test Test Compound: Compound No. 1 Test Microbial Strain: Arthroderma Vanbreuseghemii (TIMM2789) The microbial strain was cultured in a Sabouraud medium containing 500 µg/mL of cycloheximide and 50 µg/mL of chloramphenicol at 28° C. for 8 days, then spores were collected in physiological saline containing Tween80 (0.05% (v/v)), this was filtered through a cell strainer (φ40 µm), the spores were recovered from the filtrate by centrifugation (3500 rpm, 5 minutes) and washed twice with physiological saline, and then a spore suspension was prepared (1 × 10^7 spores/mL). 10 µL of the spore suspension was inoculated into Sabouraud media to which compound No. 1 dissolved in DMSO was added to have various concentrations.

The subject of assay [2] is Malassezia pachydermatis (IFM56528). In words: Antifungal activity test, inhibitory concentration by WST-8 viability in 96-well plate (Test Example 11). As to conditions: M. pachydermatis IFM56528, 32° C. for 72 hours; for MIC: viability 0%, read-out: Inhibitory concentration MIC100; for MIC50: viability 50%. On the procedure: Test Example 11: Antifungal Activity Test
Test Compounds: Compound No. 1 and Compound No. 6
Test Microbial Strain: Malassezia Pachydermatis (IFM56528)
The Malassezia microbe (Malassezia pachydermatis) cultured for 5 to 7 days in a Sabouraud dextrose medium (1% peptone, 4% dextrose) was suspended in physiological saline and a Malassezia microbe suspension was prepared in such a way as to have an absorbance of 0.0025 at 600 nm. The microbe suspension was placed in a 96-well plate at 190 µL/well, and 10 µL of the test compound dissolved in DMSO was added thereto in such a way as to provide a final concentration of 500, 250, 125, 62.5, 31.25, 16, 8, 4, 2, 1, or 0.5 ppm, and the 96-well plate was subjected to culturing at 32° C. for 72 hours. After culturing, 20 µL each of WST-8 (viable cell counting reagent, manufactured by Nacalai Tesque, Inc.) was added, and the 96-well plate was kept warm at 32° C. for 5 hours to develop a color. The absorbance at 450 nm was measured using a microplate reader (SpectraMax M2, manufactured by Molecular Devices, LLC). The absorbance of a well to which the test compound was added (absorbance in the inventive plot) and the absorbance of a well in the solvent to which the test compound was not added (absorbance in the non-agent treated plot) were measured, the viability (%) of the Malassezia microbe was determined according to the following expression, and the agent concentration at which the viability was 0% was defined as the minimum inhibitory concentration (MIC100). Further, the agent concentration at which the viability was 50% was defined as the half inhibitory concentration (MIC50).
[…] = [(absorbance in non-agent treated plot - absorbance in inventive plot)/absorbance in non-agent treated plot] × 100

Assay [3] deals with Microsporum canis (TIMM20080 strain). In words: Antimicrobial activity test, minimum inhibitory concentration (Test Example 4). As to conditions: Sabouraud media, 28° C. for 72 hours. On the procedure: Test Example 4: Antimicrobial Activity Test Test Compound: Compound No. 1
Test Microbial Strain: Microsporum Canis (TIMM20080 Strain)
as §1, with “The” for “Test Example 9: Antifungal Activity Test Test Compound: Compound No. 1 Test Microbial Strain: Arthroderma Vanbreuseghemii (TIMM2789) The”, “concentrations. After culturing at 28° C. for 72 hours, the amount of microbial growth was investigated, and the minimum inhibitory concentration was determined.” for “concentrations.”

Assay [4] has as its system Staphylococcus pseudointermedius (JCM 17571). In words: Antimicrobial activity test, minimum bactericidal concentration after 1 minute contact (Test Example 6). The following applies: JCM17571, S. pseudintermedius JCM 17571, then LB medium 30° C. for 72 hours, read-out: Minimum bactericidal concentration (MBC100). On the procedure: Test Example 6: Antimicrobial Activity test Test Compound: Compound No. 6 Test Microbial Strain: Staphylococcus Pseudointermedius (JCM 17571) The staphylococcus (Staphylococcus pseudointermedius) cultured for 24 hours on a Luria Broth (LB) agar medium plate (peptone, yeast extract, sodium chloride, agar, Invitrogen) was suspended in physiological saline, and a suspension thereof was prepared in such a way as to have an absorbance of 0.025 at 600 nm. Thereto, the test compound dissolved in DMSO was added in such a way as to provide a final concentration of 200, 100, 50, or 25 ppm, and after 1 minute, 10 µL of the suspension and 10 mL of physiological saline were placed in a syringe and stirred, and the syringe was connected to a 37 mm Quality Monitor (manufactured by Pall Corporation) followed by filtration and washing twice with 10 mL of physiological saline. The membrane filter was impregnated as it was with an LB medium and subjected to culturing at 30° C. for 72 hours, the presence or absence of colony growth was investigated, and the minimum bactericidal concentration (MBC100) was determined.

Assay [5] concerns Microsporum canis (IFM63627). Description: Antifungal activity test, minimum inhibitory concentration (Test Example 7). The following applies: Sabouraud medium, 32° C. for 72 hours, read-out: Minimum inhibitory concentration (MIC100). On the procedure:
Test Example 7: Antifungal Activity Test
Test Compound: Compound No. 6
Test Microbial Strain: Microsporum Canis (IFM63627)
The antifungal activity was studied by partially modifying the method of Test Example 5. Microsporum canis was cultured at 32° C. for 168 hours in a ⅒ Sabouraud medium to form spores, then 10 mL of physiological saline (Otsuka Normal Saline; containing 9 g of sodium chloride in 1000 mL) was added directly onto the medium, and the surface was rubbed using a disposable loop (type 1 (1 µL)) to recover a spore suspension containing hyphae. The spore suspension containing hyphae was filtered through a cell strainer (φ40 µm). The spores were recovered from the filtrate by centrifugation (3500 rpm, 5 minutes) and washed twice with physiological saline, and then a spore suspension was prepared (1 × 10^7 spores/mL). 10 µL of the spore suspension was inoculated into a Sabouraud medium to which the test compound dissolved in DMSO was added to have a predetermined concentration. Microsporum canis was cultured at 32° C. for 72 hours, then the presence or absence of colony growth was investigated, and the minimum inhibitory concentration (MIC100) was determined.

The structures appear in SMILES notation. In brackets after ≈: the same amount, converted by molar mass.

Broadly, the MIC90 is the lowest concentration that inhibits either 90% of growth or 90% of the strains tested, depending on the study. A lower MIC90 goes with greater potency. As a reminder, the MIC50 is an inhibitory concentration at the 50% level, which refers to growth in some studies and to a panel of isolates in others. A higher MIC50 goes with lower susceptibility. Consider `Cc1ccc(-c2nc(C#N)[nH]c2Cl)cc1` [Compound No. 1, 5-Chloro-4-(4-methylphenyl)-1H-imidazole-2-carbonitrile], for which the MIC in assay [1] amounted to 10 µg/mL (≈ 45.9 µM). For the same molecule, in assay [2], the MIC90 was found to be 16 µg/mL (≈ 73.5 µM), the MIC turned out to be 16 µg/mL (≈ 73.5 µM) and the MIC50 is 8 µg/mL (≈ 36.8 µM). The molecule also displayed an MIC in assay [3] of 10 µg/mL (≈ 45.9 µM).
Regarding `Cc1ccc(-c2nc(C#N)[nH]c2Cl)cc1Cl` [Compound No. 6, 5-chloro-4-(3-chloro-4-methylphenyl)-1H-imidazole-2-carbonitrile], in assay [2], the MIC90 turned out to be 4 µg/mL (≈ 15.9 µM), the MIC worked out at 4 µg/mL (≈ 15.9 µM) and the MIC50 came out at 2 µg/mL (≈ 7.93 µM). Moreover, the MBC in assay [4] came to 50 µg/mL (≈ 198 µM). The MIC in assay [5] was found to be 5 µg/mL (≈ 19.8 µM).

The record behind these values is patent publication US20230255939A1, “Antimicrobial Agent for Non-Human Animal” (ISHIHARA SANGYO KAISHA, LTD, priority 2020, published 2023).
